Literature values, collected in US20070190036A1, “Microencapsulation of pancreatic islets within a thin coat of glucagon-like peptide-1 functionalized poly(ethylene glycol)” (priority 2006, published 2007).

Test system: rat pancreatic islets
Conditions: isolated rat pancreatic islets

glucagon-like peptide 1 [GLP-1]
concentration at which insulinotropic activity began: 2.5 nM
concentration at which insulinotropic activity was saturated: 250 nM
